Measurements reported in ChEMBL document CHEMBL4602680, “Dammarane-Type Triterpenoids from the Roots of Rhus chinensis and Their Preventive Effects on Zebrafish Heart Failure and Thrombosis” (J Nat Prod, 2020).
Activity calls are given as the source filed them. The rule behind the calls is not given here.

How the values were obtained:
[1] = Toxicity in zebrafish assessed as induction of adverse effect at 0.5 ug/ml; set-up: species or system Danio rerio; conditions: in vivo
[2] = Toxicity in zebrafish assessed as induction of adverse effect at 0.5 ug/ml in presence of verapamil; set-up: species or system Danio rerio; conditions: in vivo
[3] = Toxicity in zebrafish assessed as induction of adverse effect at 0.5 ug/ml in presence of ponatinib; set-up: species or system Danio rerio; conditions: in vivo
Danio rerio [4] = species on record: Danio rerio; test: Prevention of heart failure in verapamil treated zebrafish AB assessed as efficacy on heart dilation at 0.5 ug/ml preincubated for 4.5 hrs followed by verapamil treatment and measured after 30 mins relative to verapamil alone; type: functional
Danio rerio [5] = species on record: Danio rerio; test: prevention of heart failure in verapamil treated zebrafish AB assessed as efficacy on venous congestion at 0.5 ug/ml preincubated for 4.5 hrs followed by verapamil treatment and measured after 30 mins relative to verapamil alone; type: functional
Danio rerio [6] = species on record: Danio rerio; test: prevention of heart failure in verapamil treated zebrafish AB assessed as efficacy on cardiac output at 0.5 ug/ml preincubated for 4.5 hrs followed by verapamil treatment and measured after 30 mins relative to verapamil alone; type: functional
Danio rerio [7] = species on record: Danio rerio; test: prevention of heart failure in verapamil treated zebrafish AB assessed as efficacy on blood flow velocity at 0.5 ug/ml preincubated for 4.5 hrs followed by verapamil treatment and measured after 30 mins relative to verapamil alone; type: functional
Danio rerio [8] = species on record: Danio rerio; test: prevention of heart failure in verapamil treated zebrafish AB assessed as efficacy on heart rate at 0.5 ug/ml preincubated for 4.5 hrs followed by verapamil treatment and measured after 30 mins relative to verapamil alone; type: functional
Danio rerio [9] = species on record: Danio rerio; test: Antithrombotic activity in ponatinib treated zebrafish AB assessed as preventive efficacy on thrombosis at 0.5 ug/ml incubated for 18 hrs by O-dianisidine staining based assay relative to ponatinib alone; type: functional
Danio rerio [10] = species on record: Danio rerio; test: Prevention of heart failure in verapamil treated zebrafish AB assessed as efficacy on heart dilation at 0.8 ug/ml preincubated for 4.5 hrs followed by verapamil treatment and measured after 30 mins relative to verapamil alone; type: functional
Danio rerio [11] = species on record: Danio rerio; test: prevention of heart failure in verapamil treated zebrafish AB assessed as efficacy on venous congestion at 0.8 ug/ml preincubated for 4.5 hrs followed by verapamil treatment and measured after 30 mins relative to verapamil alone; type: functional
Danio rerio [12] = species on record: Danio rerio; test: prevention of heart failure in verapamil treated zebrafish AB assessed as efficacy on cardiac output at 0.8 ug/ml preincubated for 4.5 hrs followed by verapamil treatment and measured after 30 mins relative to verapamil alone; type: functional
Danio rerio [13] = species on record: Danio rerio; test: prevention of heart failure in verapamil treated zebrafish AB assessed as efficacy on blood flow velocity at 0.8 ug/ml preincubated for 4.5 hrs followed by verapamil treatment and measured after 30 mins relative to verapamil alone; type: functional
Danio rerio [14] = species on record: Danio rerio; test: prevention of heart failure in verapamil treated zebrafish AB assessed as efficacy on heart rate at 0.8 ug/ml preincubated for 4.5 hrs followed by verapamil treatment and measured after 30 mins relative to verapamil alone; type: functional
Danio rerio [15] = species on record: Danio rerio; test: Antithrombotic activity in ponatinib treated zebrafish AB assessed as preventive efficacy on thrombosis at 45 ug/ml incubated for 18 hrs by O-dianisidine staining based assay relative to ponatinib alone; type: functional
Danio rerio [16] = species on record: Danio rerio; test: Prevention of heart failure in verapamil treated zebrafish AB assessed as efficacy on heart dilation preincubated for 4.5 hrs followed by verapamil treatment and measured after 30 mins; type: functional, organism-based
Danio rerio [17] = species on record: Danio rerio; test: Prevention of heart failure in verapamil treated zebrafish AB assessed as efficacy on heart dilation at 10 ug/ml preincubated for 4.5 hrs followed by verapamil treatment and measured after 30 mins relative to verapamil alone; type: functional
Danio rerio [18] = species on record: Danio rerio; test: prevention of heart failure in verapamil treated zebrafish AB assessed as efficacy on venous congestion at 10 ug/ml preincubated for 4.5 hrs followed by verapamil treatment and measured after 30 mins relative to verapamil alone; type: functional
Danio rerio [19] = species on record: Danio rerio; test: prevention of heart failure in verapamil treated zebrafish AB assessed as efficacy on cardiac output at 10 ug/ml preincubated for 4.5 hrs followed by verapamil treatment and measured after 30 mins relative to verapamil alone; type: functional
Danio rerio [20] = species on record: Danio rerio; test: prevention of heart failure in verapamil treated zebrafish AB assessed as efficacy on blood flow velocity at 10 ug/ml preincubated for 4.5 hrs followed by verapamil treatment and measured after 30 mins relative to verapamil alone; type: functional
[21] = Toxicity in zebrafish assessed as effect on blood flow at 0.5 ug/ml in presence of verapamil; set-up: species or system Danio rerio; conditions: in vivo
[22] = Toxicity in zebrafish assessed as effect on blood flow at 0.5 ug/ml in presence of ponatinib; set-up: species or system Danio rerio; conditions: in vivo

In the case of C=C([C@@H]1CC=C(C)C(=O)O1)[C@@H]1CC[C@]2(C)[C@@H]1CC[C@@H]1[C@@]34CO[C@](O)([C@@H](O)C3)C(C)(C)[C@@H]4CC[C@]12C, the Activity [1] is reported as “Non-Toxic”, the Activity [2] is reported as “Non-Toxic” and the Activity [3] is reported as “Non-Toxic”. For the same compound, the Activity (Danio rerio [4]) was 73%, the Activity (Danio rerio [5]) was 31% and the Activity (Danio rerio [6]) was 22%. For the same compound, the Activity (Danio rerio [7]) was 27%, the Activity (Danio rerio [8]) was 57% and the Activity (Danio rerio [9]) was 76%.
CCCCC1=NC2(CCCC2)C(=O)N1Cc1ccc(-c2ccccc2-c2nnn[nH]2)cc1 [IRBESARTAN] showed an Activity (Danio rerio [4]) of 30%, an Activity (Danio rerio [5]) of 36% and an Activity (Danio rerio [6]) of 25%. It also gave an Activity (Danio rerio [7]) of 15%.
Compound C[C@H]1O[C@@H](O[C@H]2[C@@H](O)C[C@H](O[C@H]3[C@@H](O)C[C@H](O[C@H]4CC[C@@]5(C)[C@H](CC[C@@H]6[C@@H]5C[C@@H](O)[C@]5(C)[C@@H](C7=CC(=O)OC7)CC[C@]65O)C4)O[C@@H]3C)O[C@@H]2C)C[C@H](O)[C@@H]1O [DIGOXIN] has an Activity (Danio rerio [10]) of 68%, an Activity (Danio rerio [4]) of 53% and an Activity (Danio rerio [11]) of 67%. The Activity (Danio rerio [5]) was 73%, the Activity (Danio rerio [12]) was 41% and the Activity (Danio rerio [6]) was 40%. The Activity (Danio rerio [13]) was 38%, the Activity (Danio rerio [7]) was 28% and the Activity (Danio rerio [14]) was 52%.
For CC(=O)Oc1ccccc1C(=O)O [ASPIRIN], the Activity (Danio rerio [15]) was 86%.
In the case of C=C(CCC=C(CO)CO)[C@@H]1CC[C@]2(C)[C@@H]1CC[C@@H]1[C@@]3(C)CCC(=O)C(C)(C)[C@@H]3CC[C@]12C, the Activity [1] is reported as “Non-Toxic”, the Activity [2] is reported as “Non-Toxic” and the Activity [3] is reported as “Non-Toxic”. For the same compound, the Activity (Danio rerio [16]) was “inactive”.
For C/C(=C/CC/C(CO)=C1\CC[C@]2(C)[C@@H]1CC[C@@H]1[C@@]3(C)CCC(=O)C(C)(C)[C@@H]3CC[C@]12C)CO, the Activity [1] was “Non-Toxic”, the Activity [2] was “Non-Toxic” and the Activity [3] was “Non-Toxic”. The Activity (Danio rerio [16]) was “inactive”.
With C=C([C@@H]1CC=C(C)C(=O)O1)[C@@H]1CC[C@]2(C)[C@@H]1CC[C@@H]1[C@@]34CO[C@](O)(C[C@H]3O)C(C)(C)[C@@H]4CC[C@]12C the Activity [1] was “Non-Toxic”, the Activity [2] was “Non-Toxic” and the Activity [3] was “Non-Toxic”. The Activity (Danio rerio [4]) was 66%, the Activity (Danio rerio [5]) was 51% and the Activity (Danio rerio [6]) was 58%. For the same compound, the Activity (Danio rerio [7]) was 65%, the Activity (Danio rerio [8]) was 60% and the Activity (Danio rerio [9]) was 68%.
NS(=O)(=O)c1cc2c(cc1Cl)NCNS2(=O)=O [HYDROCHLOROTHIAZIDE] showed an Activity (Danio rerio [4]) of 56%, an Activity (Danio rerio [5]) of 60% and an Activity (Danio rerio [6]) of 53%. For the same compound, the Activity (Danio rerio [7]) was 33%.
In the case of C=C([C@@H]1CC=C(C)C(=O)O1)[C@@H]1CC[C@]2(C)[C@@H]1CC[C@@H]1[C@@]3(C)CCC(=O)C(C)(C)[C@@H]3CC[C@]12C, the Activity [1] is reported as “Non-Toxic”, the Activity [2] is reported as “Non-Toxic” and the Activity [3] is reported as “Non-Toxic”. For the same compound, the Activity (Danio rerio [4]) was 55%, the Activity (Danio rerio [5]) was 23% and the Activity (Danio rerio [6]) was 41%. For the same compound, the Activity (Danio rerio [7]) was 67%, the Activity (Danio rerio [8]) was 27% and the Activity (Danio rerio [9]) was 65%.
Compound CCOC(=O)[C@H](CCc1ccccc1)N[C@@H](C)C(=O)N1CCC[C@H]1C(=O)O [ENALAPRIL] has an Activity (Danio rerio [17]) of 31%, an Activity (Danio rerio [18]) of 34% and an Activity (Danio rerio [19]) of 34%. It also gave an Activity (Danio rerio [20]) of 26%.
For C=C([C@@H]1CC=C(C)C(=O)O1)[C@@H]1CC[C@]2(C)[C@@H]1CC[C@@H]1[C@]34CC[C@@](O)(OC3)C(C)(C)[C@@H]4CC[C@]12C, the Activity [1] was “Non-Toxic”, the Activity [21] was “Toxic” and the Activity [22] was “Toxic”.
Compound COCCc1ccc(OCC(O)CNC(C)C)cc1 (configuration not stated) [METOPROLOL] has an Activity (Danio rerio [4]) of 34%, an Activity (Danio rerio [5]) of 29% and an Activity (Danio rerio [6]) of 35%. The Activity (Danio rerio [7]) was 17%.
In the case of C=C(CC/C=C(/C)C(=O)O)[C@@H]1CC[C@]2(C)[C@@H]1CC[C@@H]1[C@]34CC[C@@](O)(OC3)C(C)(C)[C@@H]4CC[C@]12C, the Activity [1] is reported as “Non-Toxic”, the Activity [2] is reported as “Non-Toxic” and the Activity [3] is reported as “Non-Toxic”. The Activity (Danio rerio [4]) was 65%, the Activity (Danio rerio [5]) was 62% and the Activity (Danio rerio [6]) was 72%. It also gave an Activity (Danio rerio [7]) of 83%, an Activity (Danio rerio [8]) of 77% and an Activity (Danio rerio [9]) of 24%.
For C=C([C@@H]1CC[C@]2(C)[C@@H]1CC[C@@H]1[C@]34CC[C@@](O)(OC3)C(C)(C)[C@@H]4CC[C@]12C)[C@@H]1OC(=O)C(C)=C[C@H]1O, the Activity [1] was “Non-Toxic”, the Activity [2] was “Non-Toxic” and the Activity [3] was “Non-Toxic”. For the same compound, the Activity (Danio rerio [4]) was 63%, the Activity (Danio rerio [5]) was 59% and the Activity (Danio rerio [6]) was 64%. For the same compound, the Activity (Danio rerio [7]) was 65%, the Activity (Danio rerio [8]) was 54% and the Activity (Danio rerio [9]) was 10%.
